The source of these data is PMC5099944, “Design, synthesis and biological evaluation of hybrids of β-carboline and salicylic acid as potential anticancer and apoptosis inducing agents” (Scientific Reports, 2016).

The test system of data set [1] is SMMC-7721 cells. Put plainly: Flow cytometry assay of cell apoptosis (FITC-Annexin V/PI). The class given is cell-based, human. The note with it: 48 h. As for the experimental part:
To determine whether apoptosis is involved in the anti-proliferative effects of 8h, apoptosis assay was performed using SMMC-7721 cells. The cells were incubated with either vehicle alone, different concentrations of 8h (7.0 or 14 μM), or 14 μM 5-FU for 48 h, and then stained with FITC-Annexin V and propidium iodide (PI). The percentages of apoptotic SMMC-7721 cells were determined by flow cytometry analysis. In the vehicle group, the occurrence of SMMC-7721 cell apoptosis was minimal. […] Low concentration of 8h (7.0 μM) induced 46% SMMC-7721 cell apoptosis, while the higher dose (14 μM) of 8h induced 63% SMMC-7721 cell apoptosis.
Figure 4 Compound 8h induced SMMC-7721 cell apoptosis in vitro. SMMC-7721 cells were incubated with the indicated concentrations of 8h and 14 μM 5-FU for 48 h, and the cells were stained with FITC-Annexin V and PI, followed by flow cytometry analysis. (A) Flow cytometry analysis. (B) Quantitative analysis of apoptotic cells. Data are expressed as means ± SD of the percentages of apoptotic cells from three independent experiments. *P < 0.01 vs control.
SMMC-7721 cells were cultured overnight and incubated in triplicate with compound 8h (7.0 and 14 μM), 5-FU (14 μM), or vehicle for 48 h. The cells were harvested, and stained with FITC-Annexin V and PI (BioVision) at room temperature for 15 min. The percentage of apoptotic cells was determined by flow cytometry (Beckman Coulter) analysis.
Background: In flow cytometry, cells or beads pass a laser one at a time.

Data set [2] concerns human cancer cells (SMMC-7721, Hep G2, HCT116, EJ, H460). As to the kind of experiment: MTT assay, summary statements across several human cancer cell lines. The data set is classed as cell-based. As for the experimental part:
(§1) The in vitro antitumor activities of the synthesized compounds 7a-l and 8a-l against five human cancer cells were evaluated in MTT assays using 5-fluorouracil (5-FU) and harmine as positive controls. These cells are human hepatocellular carcinoma cells (SMMC-7721 and Hep G2), human colon cancer cell lines (HCT116), human bladder carcinoma cells (EJ), and human lung cancer cells (H460).
(§2) Hepatocellular carcinoma cells (SMMC-7721 and Hep G2), Human colon cancer cell lines (HCT116), human bladder carcinoma cells (EJ) or human lung cancer cells (H460) at 10^4 cells per well were cultured in 10% FBS DMEM in 96-well flat-bottom microplates overnight. The cells were incubated in triplicate with, or without, different concentrations of each test compound for 48 h. During the last 4 h incubation, 30 μL of tetrazolium dye (MTT) solution (5 mg mL^−1) was added to each well. The resulting MTT-formazan crystals were dissolved in 150 μL DMSO, and absorbance was measured spectrophotometrically at 570 nm using an ELISA plate reader. The inhibition induced by each test compound at the indicated concentrations was expressed as a percentage. The concentration required for 50% inhibition (IC50) was calculated using the software (GraphPadPrism Version 4.03).

The next data set concerns LO2 cells. As to the kind of experiment: MTT assay, proliferation of normal liver LO2 cells. The data set is classed as cell-based, human. As for the experimental part: Given the strong growth inhibitory activity of 8h in vitro, it was profiled for antitumor selectivity by examining its inhibitory effects on the growth of SMMC-7721 cells and LO2 cells (human hepatocellular normal cells).
Figure 3 (A) Inhibitory effects of 8h on the proliferation of SMMC-7721 and LO2 cells. Cells were incubated with the indicated concentrations of 8h for 48 h. Cell proliferation was assessed using the MTT assay. Data are means ± SD of the inhibition (%) from three independent experiments. (B) Inhibitory effects of 5h, 8h, and SA or the vehicle control against SMMC-7721 and LO2 cells. SMMC-7721 and LO2 cells were incubated with the indicated compounds at 25 μM for 48 h, and cell proliferation was assessed by the MTT assay. Data are means ± SD of the inhibition (%) from three independent experiments. *P < 0.01 versus control of SMMC-7721, ^#P < 0.01 inhibitory effects of 8h in SMMC-7721 versus LO2 cells.
as §2

For data set [3], the system named is SMMC-7721 cells. As to the kind of experiment: Mitochondrial membrane potential assay (JC-1). The class given is cell-based, human. Conditions: 14 μM, 48 h (method b112 says 24 h). As to the method:
The mitochondrial pathway plays an important role in cell apoptosis. To determine whether mitochondria is involved in the apoptosis-inducing effect of 8h, changes in mitochondrial membrane potential were investigated with a fluorescent probe JC-1. JC-1 is a lipophilic cationic dye which facilitates the penetration of mitochondrial membrane due to the decrease of membrane potential, indicated by a fluorescence shift from red to green. The cells were treated with vehicle alone, with different concentrations of 8h (7.0 or 14 μM), or 14 μM 5-FU for 48 h, and then stained with JC-1. […] The percentage of cells emitting green fluorescence reached 57% at the higher dose of 14 μM. The observations indicate that 8h plays a role in the dissipation of mitochondrial membrane potential and the apoptosis effect of 8h is associated with mitochondrial depolarization in cells.
Mitochondrial membrane potential was assessed using a Beyotime (China) kit with JC-1. Briefly, the SMMC-7721 cells in the logarithmic growth phase were treated with 8h (7.0 or 14 μM), 5-FU (14 μM), or vehicle control for 24 h. The cells were harvested, and then labeled with JC-1 in accordance with the manufacturer’s instructions. The samples labeled with JC-1 were analyzed via flow cytometry. For the detection of JC-1, excitation was set at 530 nm, and emissions collected at 585 nm.

Another data set concerns HCT116 cells. Put plainly: MTT assay, proliferation of HCT116 cells. The class given is cell-based. The note with it: Homo sapiens, HCT-116, 48 h, read-out: In vitro cytotoxicity (IC50) HCT116. As for the experimental part: as §1, §2
In general terms: Formazan colour is commonly taken as a measure of viable cells.

For the next data set, the system named is EJ cells. As to the kind of experiment: MTT assay, proliferation of EJ cells. The data set is classed as cell-based. Conditions: 48 h, EJ human bladder carcinoma cells, read-out: In vitro cytotoxicity (IC50) EJ. As to the method: as §1, §2
The test system of the next data set is H460 cells. As to the kind of experiment: MTT assay, proliferation of H460 cells. The data set is classed as cell-based. The note with it: NCI-H460, 48 h, H460 human lung cancer cells, read-out: In vitro cytotoxicity (IC50) H460. As for the experimental part: as §1, §2

The IC50 is the point on the concentration scale where inhibition reaches its midpoint.

As for `Cc1nc(C(=O)NCCCCCNC(=O)c2ccccc2O)cc2c1[nH]c1ccccc12` [8h, N-(5-(2-Hydroxybenzamido)pentyl)-1-methyl-9H-pyrido[3,4-b]indole-3-carboxamide], the entries for the “SMMC-7721 cell apoptosis (percentage of apoptotic cells)” value with SMMC-7721 cells [1] (7.0 μM) and with SMMC-7721 cells [1] (14 μM) were 46% and 63%, respectively. The IC50 in data set [2] (Homo sapiens, SMMC-7721, Hep G2, HCT116, MTT, read-out: IC50 values for liver and colon cancer cells growth (range over cell lines)) is 6.97 to 8.25 µM; with LO2 cells (L02, MTT assay, 48 h, LO2 human hepatocellular normal cells, read-out: IC50 against liver normal LO2 cells), 55.2 µM; in the data set on HCT116 cells, 8.25 µM; with EJ cells, 7.89 µM; with H460 cells it was 13.1 µM. Further, the “IC50 fold lower than that of 5-FU” value in data set [2] (liver and colon cancer cells) was 4~6 fold. The “Inhibitory effect on LO2 cells” value in the data set on LO2 cells (25 μM, 48 h, MTT assay) was “little inhibitory effects”. Besides, the “Selectivity: IC50 on SMMC-7721 fold lower than against LO2 cells” value with LO2 cells (SMMC-7721 vs LO2) was determined as 9 fold. In addition, the “Growth inhibitory activity on non-cancer LO2 cells” value in the data set with LO2 cells (concentrations up to 25 μM, 48 h, MTT) is given as “no apparent growth inhibitory activity”. Moreover, in the data set with SMMC-7721 cells [3], the “Percentage of cells emitting green fluorescence (JC-1)” value was 57%.
